Test results taken from ChEMBL document CHEMBL1909046, “DrugMatrix in vitro pharmacology data”.

Experiments:
[1] = target: T1, Endothelin-1 receptor (Homo sapiens, UniProt P25101); assay type: cell membranes, Membrane; conditions: cho-k1; also: in other assays of this panel Not Active means under 50% inhibition at 10 µM
T1 sequence (P25101 whole entry): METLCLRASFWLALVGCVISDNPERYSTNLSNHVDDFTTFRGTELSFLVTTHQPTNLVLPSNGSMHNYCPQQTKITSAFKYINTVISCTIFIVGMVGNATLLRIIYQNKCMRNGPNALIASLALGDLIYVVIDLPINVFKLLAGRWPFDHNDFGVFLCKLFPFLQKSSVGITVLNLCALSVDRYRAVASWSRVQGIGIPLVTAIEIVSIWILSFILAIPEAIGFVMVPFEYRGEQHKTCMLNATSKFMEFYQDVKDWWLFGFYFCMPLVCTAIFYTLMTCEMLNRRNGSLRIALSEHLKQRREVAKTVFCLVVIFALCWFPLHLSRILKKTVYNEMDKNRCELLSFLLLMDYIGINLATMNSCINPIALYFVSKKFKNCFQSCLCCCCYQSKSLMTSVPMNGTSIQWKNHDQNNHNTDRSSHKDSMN

[2] = target: Beta-1 adrenergic receptor (Homo sapiens, UniProt P08588); test: DRUGMATRIX: Adrenergic beta1 radioligand binding (ligand: [125I] Cyanopindolol); assay type: cell membranes, CHO-K1, Membrane; conditions: cho-k1; Not Active = under 50% inhibition at 10 µM
[3] = target: T2, Caspase-1 (Homo sapiens, UniProt P29466); design: species or system Escherichia coli;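 also: Caspase-1 enzyme inhibition assay with a peptide substrate; in other assays of this panel Not Active means under 50% inhibition at 10 µM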
T2 sequence (P29466 whole entry): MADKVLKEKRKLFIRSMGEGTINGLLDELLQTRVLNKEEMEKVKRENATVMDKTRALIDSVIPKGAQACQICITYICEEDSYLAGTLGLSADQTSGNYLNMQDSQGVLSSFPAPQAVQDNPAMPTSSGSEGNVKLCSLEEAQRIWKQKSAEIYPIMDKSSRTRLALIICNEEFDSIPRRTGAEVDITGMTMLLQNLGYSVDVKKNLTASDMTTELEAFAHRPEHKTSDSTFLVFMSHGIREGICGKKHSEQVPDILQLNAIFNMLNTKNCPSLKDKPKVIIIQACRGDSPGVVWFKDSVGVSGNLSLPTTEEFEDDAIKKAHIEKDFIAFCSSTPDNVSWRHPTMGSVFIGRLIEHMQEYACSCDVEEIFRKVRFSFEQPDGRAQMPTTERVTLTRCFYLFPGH

[4] = target: T3, Polyunsaturated fatty acid lipoxygenase ALOX15 (Oryctolagus cuniculus, UniProt P12530); test: biochemical; assay type: tissue-based, Reticulocytes;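 also: inhibition of 15-lipoxygenase enzyme activity measured with linoleic acid as the substrate; in other assays of this panel Not Active means under 50% inhibition at 10 µM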
T3 sequence (P12530 whole entry): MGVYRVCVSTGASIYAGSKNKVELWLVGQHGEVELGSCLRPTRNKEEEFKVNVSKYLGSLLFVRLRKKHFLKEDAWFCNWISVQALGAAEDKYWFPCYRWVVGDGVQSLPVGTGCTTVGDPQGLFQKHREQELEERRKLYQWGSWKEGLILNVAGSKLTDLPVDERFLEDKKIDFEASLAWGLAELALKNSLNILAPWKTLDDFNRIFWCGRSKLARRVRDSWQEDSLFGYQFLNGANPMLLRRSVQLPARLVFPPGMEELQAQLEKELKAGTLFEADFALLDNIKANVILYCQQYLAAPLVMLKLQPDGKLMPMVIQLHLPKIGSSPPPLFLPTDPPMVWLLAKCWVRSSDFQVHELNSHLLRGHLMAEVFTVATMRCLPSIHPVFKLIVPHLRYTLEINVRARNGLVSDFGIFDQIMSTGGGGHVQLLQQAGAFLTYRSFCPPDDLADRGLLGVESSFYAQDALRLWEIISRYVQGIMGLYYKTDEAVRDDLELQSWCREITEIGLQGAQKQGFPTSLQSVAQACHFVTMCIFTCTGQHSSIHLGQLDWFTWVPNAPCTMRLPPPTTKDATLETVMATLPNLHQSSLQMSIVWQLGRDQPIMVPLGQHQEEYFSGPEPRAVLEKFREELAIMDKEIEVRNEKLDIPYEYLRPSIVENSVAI

[5] = DRUGMATRIX: Sigma2 radioligand binding (ligand: [3H] Ifenprodil); assay type: cell membranes, Rattus norvegicus, Wistar, Brain, Membrane; conditions: Not Active = under 50% inhibition at 10 µM

Beta-1 adrenergic receptor, sequence (P08588 whole entry): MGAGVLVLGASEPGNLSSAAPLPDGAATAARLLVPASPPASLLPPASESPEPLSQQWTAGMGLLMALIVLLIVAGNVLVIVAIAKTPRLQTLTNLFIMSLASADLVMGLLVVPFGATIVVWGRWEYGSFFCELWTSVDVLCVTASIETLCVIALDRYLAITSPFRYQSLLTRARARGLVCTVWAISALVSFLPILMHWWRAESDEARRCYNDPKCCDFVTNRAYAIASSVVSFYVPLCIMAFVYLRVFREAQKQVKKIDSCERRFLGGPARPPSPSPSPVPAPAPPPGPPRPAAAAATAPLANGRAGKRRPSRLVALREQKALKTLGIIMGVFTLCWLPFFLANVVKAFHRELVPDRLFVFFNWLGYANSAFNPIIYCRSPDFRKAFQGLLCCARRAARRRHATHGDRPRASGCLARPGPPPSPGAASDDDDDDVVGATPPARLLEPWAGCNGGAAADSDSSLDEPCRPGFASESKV

Row | Molecule | IC50 [1] | IC50 [2] | IC50 [3] | IC50 ([4]; reticulocytes) | IC50 [5] | Ki [5] | IC50 ([4]; read-out: IC50) [µM] | Ki [1] | Ki [2] | Ki [3] | Ki ([4]; reticulocytes) | IC50 ([5]; read-out: IC50) [µM] | Ki ([5]; read-out: Ki) [µM] | IC50 ([1]; read-out: IC50) [µM] | Ki ([1]; read-out: Ki) [µM]
1 | Cn1c(=O)c2c(ncn2CC(O)CO)n(C)c1=O (configuration not stated) [DYPHYLLINE] | Not Active | Not Active | Not Active | Not Active | Not Active | Not Active |  |  |  |  |  |  |  |  | 
2 | O=C(O)c1cccnc1Nc1cccc(C(F)(F)F)c1 [NIFLUMIC ACID] | Not Active | Not Active | Not Active | Not Active | Not Active | Not Active |  |  |  |  |  |  |  |  | 
3 | CC(C)c1cccc(C(C)C)c1O [PROPOFOL] | Not Active | Not Active | Not Active |  | Not Active | Not Active | 7.6 |  |  |  |  |  |  |  | 
4 | COC(=O)Nc1nc2ccc(C(=O)c3cccs3)cc2[nH]1 [NOCODAZOLE] | Not Active | Not Active | Not Active | Not Active | Not Active | Not Active |  |  |  |  |  |  |  |  | 
5 | N=C(N)NC(=O)Cc1c(Cl)cccc1Cl [GUANFACINE] | Not Active | Not Active | Not Active | Not Active | Not Active | Not Active |  |  |  |  |  |  |  |  | 
6 | CC(C)NCC(O)COc1cccc2[nH]ccc12 (configuration not stated) [PINDOLOL] | Not Active |  | Not Active | Not Active | Not Active | Not Active |  |  |  |  |  |  |  |  | 
7 | CC(=O)[C@@]1(O)CC[C@H]2[C@@H]3CCC4=CC(=O)CC[C@]4(C)[C@H]3CC[C@@]21C [HYDROXYPROGESTERONE] | Not Active | Not Active | Not Active | Not Active | Not Active | Not Active |  |  |  |  |  |  |  |  | 
8 | CC(=O)O[C@H]1C(=O)[C@@]2(C)[C@H]([C@H](OC(=O)c3ccccc3)[C@]3(O)C[C@H](OC(=O)[C@H](O)[C@@H](NC(=O)c4ccccc4)c4ccccc4)C(C)=C1C3(C)C)[C@]1(OC(C)=O)CO[C@@H]1C[C@@H]2O [PACLITAXEL] | Not Active | Not Active | Not Active | Not Active | Not Active | Not Active |  |  |  |  |  |  |  |  | 
9 | CCCOc1ccc(C(=O)OCCN(CC)CC)cc1N [PROPARACAINE] | Not Active | Not Active | Not Active | Not Active | Not Active | Not Active |  |  |  |  |  |  |  |  | 
10 | O=C(N/N=C/c1ccc([N+](=O)[O-])o1)c1cc([N+](=O)[O-])cc([N+](=O)[O-])c1O [NIFURSOL] | Not Active | Not Active | Not Active | Not Active | Not Active | Not Active |  |  |  |  |  |  |  |  | 
11 | CC(=O)Oc1ccc(C(c2ccc(OC(C)=O)cc2)c2ccccn2)cc1 [BISACODYL] | Not Active | Not Active | Not Active | Not Active | Not Active | Not Active |  |  |  |  |  |  |  |  | 
12 | CN(C)[C@@H]1C(O)=C(C(N)=O)C(=O)[C@@]2(O)C(O)=C3C(=O)c4c(O)ccc(Cl)c4[C@@](C)(O)[C@H]3C[C@@H]12 [CHLORTETRACYCLINE] | Not Active | Not Active | Not Active | Not Active | Not Active | Not Active |  |  |  |  |  |  |  |  | 
13 | Nc1ccn([C@@H]2O[C@H](CO)[C@@H](O)[C@@H]2O)c(=O)n1 [CYTARABINE] | Not Active | Not Active | Not Active | Not Active | Not Active | Not Active |  |  |  |  |  |  |  |  | 
14 | CCC1(CCC(C)C)C(=O)NC(=O)NC1=O [AMOBARBITAL] | Not Active | Not Active | Not Active | Not Active | Not Active | Not Active |  |  |  |  |  |  |  |  | 
15 | AURANOFIN | Not Active | Not Active | Not Active | Not Active | Not Active | Not Active |  | Not Active | Not Active | Not Active | Not Active |  |  |  | 
16 | O=C/C=C/c1ccccc1 | Not Active | Not Active | Not Active | Not Active | Not Active | Not Active |  |  |  |  |  |  |  |  | 

Row | Molecule | IC50 [1] | IC50 [2] | IC50 [3] | IC50 ([4]; reticulocytes) | IC50 [5] | Ki [5] | IC50 ([4]; read-out: IC50) [µM] | Ki [1] | Ki [2] | Ki [3] | Ki ([4]; reticulocytes) | IC50 ([5]; read-out: IC50) [µM] | Ki ([5]; read-out: Ki) [µM] | IC50 ([1]; read-out: IC50) [µM] | Ki ([1]; read-out: Ki) [µM]
17 | C=CCc1ccc(O)c(OC)c1 [EUGENOL] | Not Active | Not Active | Not Active | Not Active | Not Active | Not Active |  |  |  |  |  |  |  |  | 
18 | COC1=C(OC)C(=O)C(CCCCCCCCCCO)=C(C)C1=O [IDEBENONE] | Not Active | Not Active | Not Active | Not Active | Not Active | Not Active |  |  |  |  |  |  |  |  | 
19 | Oc1cccc(O)c1O [PYROGALLOL] | Not Active | Not Active | Not Active |  | Not Active | Not Active | 2.11 |  |  |  |  |  |  |  | 
20 | C[C@]12C=CC(=O)C=C1CC[C@@H]1[C@@H]2[C@@H](O)C[C@@]2(C)[C@H]1CC[C@]2(O)C(=O)CO [PREDNISOLONE] | Not Active | Not Active | Not Active | Not Active | Not Active | Not Active |  |  |  |  |  |  |  |  | 
21 | CC(=O)[C@H]1[C@H](C#N)C[C@H]2[C@@H]3CC=C4C[C@@H](O)CC[C@]4(C)[C@H]3CC[C@@]21C [PREGNENOLONE CARBONITRILE] | Not Active | Not Active | Not Active | Not Active | Not Active | Not Active |  |  |  |  |  |  |  |  | 
22 | CC(C(=O)O)c1cccc(Oc2ccccc2)c1 (configuration not stated) [FENOPROFEN] | Not Active | Not Active | Not Active | Not Active | Not Active | Not Active |  |  |  |  |  |  |  |  | 
23 | NNc1nncc2ccccc12 [HYDRALAZINE] | Not Active | Not Active | Not Active |  | Not Active | Not Active | 3.65 |  |  |  |  |  |  |  | 
24 | O=C1O[C@H]([C@@H](O)CO)C(O)=C1O [ASCORBIC ACID] | Not Active | Not Active | Not Active | Not Active | Not Active | Not Active |  |  |  |  |  |  |  |  | 
25 | NC(=O)C[S+]([O-])C(c1ccccc1)c1ccccc1 (configuration not stated) [MODAFINIL] | Not Active | Not Active | Not Active | Not Active | Not Active | Not Active |  |  |  |  |  |  |  |  | 
26 | CCN(CC)CCOCCC1=CCC2CC1C2(C)C (configuration not stated) [MYRTECAINE] | Not Active | Not Active | Not Active | Not Active | Not Active | Not Active |  |  |  |  |  |  |  |  | 
27 | COc1ccc2cc3[n+](cc2c1OC)CCc1cc2c(cc1-3)OCO2.[Cl-] [BERBERINE CHLORIDE] | Not Active | Not Active | Not Active | Not Active |  |  |  |  |  |  |  | 0.095 | 0.059 |  | 
28 | GRAMICIDIN |  | Not Active | Not Active | Not Active | Not Active | Not Active |  |  | Not Active | Not Active | Not Active |  |  | 2.98 | 1.83
29 | COc1cc([C@@H]2c3cc4c(cc3[C@@H](O[C@@H]3O[C@@H]5CO[C@@H](C)O[C@H]5[C@H](O)[C@H]3O)[C@H]3COC(=O)[C@H]23)OCO4)cc(OC)c1O [ETOPOSIDE] | Not Active | Not Active | Not Active |  | Not Active | Not Active | 3.19 |  |  |  |  |  |  |  | 
30 | CCC1(C)CC(=O)NC1=O (configuration not stated) [ETHOSUXIMIDE] | Not Active | Not Active | Not Active | Not Active | Not Active | Not Active |  |  |  |  |  |  |  |  | 
31 | CCCNCC(O)COc1ccccc1C(=O)CCc1ccccc1 (configuration not stated) [PROPAFENONE] | Not Active |  | Not Active | Not Active | Not Active | Not Active |  |  |  |  |  |  |  |  | 
